Laboratory results reported in patent US12480163B2, “Compositions and methods for identification assessment, prevention, and treatment of Ewing sarcoma using TP53 dependency biomarkers and modulators” (Dana-Farber Cancer Institute, Inc., priority 2018, dated 2025).
“Also recorded” adds a separate entry of the source.

Legend:
[1] = system: TP53 mutated Ewing sarcoma cell lines; assay: CellTiter-Glo cell viability assay, TP53 mutated Ewing sarcoma cell lines; type: cell-based; details: treated for 3 d
Experimental: Cell viability was assessed using the CellTiter-Glo® Luminescent Cell Viability Assay (Promega). Viability assays were performed after Ewing sarcoma cell lines were infected with sgRNAs targeting TP53, MDM2, MDM4, PPM1D, or USP7 or treated with ATSP-7041, ATSP-7342, GSK2830371, P5091, XL-188, or vehicle control.

[2] = system: MDM2, p53, and p21 protein levels; assay: Western immunoblotting of MDM2, p53, p21 in TP53 wild-type Ewing sarcoma cell lines; type: cell-based
Experimental: (§1) Whole-cell lysates were extracted in cell lysis buffer (Cell Signaling) supplemented with EDTA-free protease inhibitors and PhosSTOP™ phosphatase inhibitors (Roche). Western immunoblotting was performed using standard techniques. Primary antibodies used included anti-MDM2 (ab178938; Abcam), anti-MDM2 (86934; Cell Signaling), anti-MDM4 (A300-287A; Bethyl Laboratories), anti-p53 (2527S; Cell Signaling), anti-p21 (2946S; Cell Signaling), anti-Vinculin (18058; Abcam), anti-Wip1 (A300-664A; Bethyl Laboratories), anti-pSer15-p53 (9284; Cell Signaling), anti-USP7 (A300-033A; Bethyl Laboratories), and anti-Tubulin (cp06; CalBiochem).

p53-MDM4 complex = molecular target: T1, p53-MDM4 complex (Homo sapiens, UniProt O15151); assay: MDM4 immunoprecipitation from TC32 cell lysates, p53 and MDM4 Western blot; type: binding; details: TC32 lysates after RG7388 pre-treatment, 20 μM compound
T1 construct: endogenous in cells; host or cells: TC32 Ewing sarcoma cells (TP53 wild-type), lysed in NP-40 buffer
T1 sequence (O15151 1-490): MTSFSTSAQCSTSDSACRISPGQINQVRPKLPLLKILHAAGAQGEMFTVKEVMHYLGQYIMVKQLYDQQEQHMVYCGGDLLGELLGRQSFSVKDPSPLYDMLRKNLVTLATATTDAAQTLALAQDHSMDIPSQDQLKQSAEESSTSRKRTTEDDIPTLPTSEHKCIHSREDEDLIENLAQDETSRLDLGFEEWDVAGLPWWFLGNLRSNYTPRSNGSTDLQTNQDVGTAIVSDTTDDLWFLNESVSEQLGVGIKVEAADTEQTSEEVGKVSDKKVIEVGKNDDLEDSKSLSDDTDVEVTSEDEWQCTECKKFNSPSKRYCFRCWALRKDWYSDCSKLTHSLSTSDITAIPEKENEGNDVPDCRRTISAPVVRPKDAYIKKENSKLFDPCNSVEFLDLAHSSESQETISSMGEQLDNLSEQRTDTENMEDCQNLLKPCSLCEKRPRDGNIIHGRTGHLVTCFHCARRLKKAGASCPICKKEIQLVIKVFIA
Experimental: g. Immunoprecipitation Experiments
Five million TC32 cells were treated with either 10 μM RG7388 or vehicle control for 4 h. Cells were lysed in buffer A (150 mM NaCl, 50 mM Tris, and 0.5% NP-40, pH 7.4) and combined with anti-MDM4 antibody (A300-287A; Bethyl Laboratories) in the presence of 20 μM RG7388, ATSP-7041, or vehicle control in a total volume of 1 ml, rotating at 4° C. for 16 h. Subsequently, 50 μl washed Protein AG beads (sc-2003; Santa Cruz) were added and the mixture was incubated for 1 h rotating at 4° C. Beads were washed three times in buffer A, and protein complexes were eluted by boiling in NuPage® LDS Sample Buffer (NP0007; Invitrogen) supplemented with DTT. Samples were analyzed by Western blot with antibodies against p53 DO-1 (sc-126; Santa Cruz) and MDM4 (A300-287A; Bethyl Laboratories).

[3] = system: TP53 wild-type Ewing sarcoma cell lines; assay: Annexin V staining, flow cytometry (cell death); type: cell-based; details: TC32 and CHLA258; 2 d ATSP-7041 (2 μM, 4 μM) or P5091 (6.5 μM, 8 μM), 3 d GSK2830371 (15 μM)
Experimental: Cell death was measured using flow cytometric analysis of Annexin V staining according to the manufacturer's instructions (eBioscience). Data analysis was completed using Flowjo 7.6 software (Treestar).

Wip1 = molecular target: T2, Wip1 (Homo sapiens, UniProt O15297); assay: Western immunoblotting of Wip1 and pSer15-p53; type: cell-based; details: TC32 and CHLA258 cells, 2 d
T2 construct: Whole-cell lysates were extracted in cell lysis buffer (Cell Signaling); endogenous in cells; host or cells: TP53 wild-type Ewing sarcoma cell lines
T2 sequence (O15297 1-605): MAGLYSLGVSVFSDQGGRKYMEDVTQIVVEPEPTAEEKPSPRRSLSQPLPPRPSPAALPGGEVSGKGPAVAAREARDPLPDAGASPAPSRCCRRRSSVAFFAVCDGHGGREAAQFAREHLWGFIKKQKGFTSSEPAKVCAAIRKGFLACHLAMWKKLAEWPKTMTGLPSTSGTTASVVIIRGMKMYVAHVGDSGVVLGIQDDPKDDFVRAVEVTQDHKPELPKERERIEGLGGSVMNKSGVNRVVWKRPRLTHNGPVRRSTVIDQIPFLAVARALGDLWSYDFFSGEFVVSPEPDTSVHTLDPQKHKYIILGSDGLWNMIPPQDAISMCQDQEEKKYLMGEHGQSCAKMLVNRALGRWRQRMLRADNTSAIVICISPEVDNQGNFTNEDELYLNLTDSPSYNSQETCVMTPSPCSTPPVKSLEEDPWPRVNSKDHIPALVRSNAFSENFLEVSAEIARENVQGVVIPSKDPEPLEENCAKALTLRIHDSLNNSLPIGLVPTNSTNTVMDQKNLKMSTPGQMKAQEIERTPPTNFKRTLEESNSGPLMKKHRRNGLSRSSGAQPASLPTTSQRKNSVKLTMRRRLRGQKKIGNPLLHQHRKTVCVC
Experimental: as §1

SMILES: CC(=O)N[C@@H](CC(C)C)C(=O)N[C@H](C(=O)N[C@@H](Cc1ccccc1)C(=O)N[C@]1(C)CCCCCCC=CCCC[C@@](C)(C(=O)N[C@@H](CO)C(=O)N[C@@H](C)C(=O)N[C@@H](C)C(N)=O)NC(=O)[C@H](CC2CCC2)NC(=O)[C@H](CCC(N)=O)NC(=O)[C@H](C)NC(=O)[C@H](Cc2c[nH]c3ccccc23)NC(=O)[C@H](Cc2ccc(O)cc2)NC(=O)[C@H](CCC(=O)O)NC1=O)[C@@H](C)O [ATSP-7041, Ac-Leu17-Thr-Phe-cyclo(R8-Glu-Tyr-Trp-Ala-Gln-Cba-S5)-Ser-Ala-Ala30-NH2]
- cell viability, normalized to vehicle control [1]: resistant
- p53 protein levels, combination of ATSP-7041 and doxorubicin ([2]; TC32 cells, 2 d): greatly increased p53 protein levels
- p53 protein levels, combination of ATSP-7041 and etoposide ([2]; TC32 cells, 2 d): greatly increased p53 protein levels
- p53 protein levels, combination of ATSP-7041 and vincristine ([2]; TC32 cells, 2 d): greatly increased p53 protein levels
- MDM2, p53, and p21 protein levels ([2]; TP53 wild-type Ewing sarcoma cell lines, Western blot): increased protein levels of MDM2, p53, and p21; also recorded: Concentration-dependent increases
- disruption of p53-MDM4 complex (MDM4 immunoprecipitation) (p53-MDM4 complex): partial disruption of p53-MDM4 complex; also recorded: decreased the level of p53-MDM4 interaction
- cell death measured by Annexin V staining [3]: triggers cell death; also recorded: induction of cell death
- phosphorylation of p53 at Serine 15, combination of ATSP-7041 and GSK2830371 (Wip1): increased phospho-Serine15-p53 protein levels; also recorded: increased the phosphorylation of p53 at Serine 15; also recorded: increases the level of pSer15 on p53 more than with either molecule alone
